# Experimental data from patent US10981860B2, “Caspase inhibitor and pharmaceutical composition, use and therapeutic method thereof” (Chia Tai Tianqing Pharmaceutical Group Co., Ltd., priority 2016, dated 2021).
# System: Anti-Fas-induced Jurkat cells
# Experiment: Anti-Fas-induced apoptosis of Jurkat cells in vitro (Caspase 3 substrate Ac-DEVD-AMC fluorescence)
# Assay type: cell-based
# Settings: Homo sapiens; Jurkat Clone E6-1, Anti-Fas 50 ng/mL, 24 hours, Ac-DEVD-AMC 10 μM
row,SMILES,EC50 [nM]
1,CC(C)OC(=O)N1CCC[C@@H](C(=O)N[C@@H](CC(=O)O)C(=O)COc2c(F)c(F)cc(F)c2F)C1 [Example 30],14.5
2,O=C(O)C[C@H](NC(=O)C1CCN(C(=O)NC2CCCC2)CC1)C(=O)COc1c(F)c(F)cc(F)c1F [Example 79],26
3,O=C(O)C[C@H](NC(=O)C1CCN(C(=O)OCc2ccccc2)CC1)C(=O)COc1c(F)c(F)cc(F)c1F [Example 71],29.3
4,O=C(O)C[C@H](NC(=O)CC1CN(C(=O)C2CCCC2)C1)C(=O)COc1c(F)c(F)cc(F)c1F [Example 105],27.6
5,CC(C)(C)c1ccccc1NC(=O)C(=O)N1CCCO[C@@H](C(=O)N[C@@H](CC(=O)O)C(=O)COc2c(F)c(F)cc(F)c2F)C1 [Example 110],383
6,O=C(O)C[C@H](NC(=O)C1CCN(C(=O)c2nc3ccccc3s2)CC1)C(=O)COc1c(F)c(F)cc(F)c1F [Example 58],16.6
7,O=C(O)C[C@H](NC(=O)C1CCN(C(=O)C(=O)N2CCCC2)CC1)C(=O)COc1c(F)c(F)cc(F)c1F [Example 90],44.2
8,Cn1c(C(=O)N2CCC(C(=O)N[C@@H](CC(=O)O)C(=O)COc3c(F)c(F)cc(F)c3F)CC2)nc2ccccc21 [Example 43],38.6
9,O=C(O)C[C@H](NC(=O)c1ccc(NC(=O)OCc2ccccc2)cc1)C(=O)COc1c(F)c(F)cc(F)c1F [Example 23],215
10,CC(C)[C@H]1CC[C@H](C)C[C@@H]1OC(=O)N1CCC(C(=O)N[C@@H](CC(=O)O)C(=O)COc2c(F)c(F)cc(F)c2F)CC1 [Example 77],96
11,O=C(O)C[C@H](NC(=O)C1CCN(C(=O)c2ncccn2)CC1)C(=O)COc1c(F)c(F)cc(F)c1F [Example 38],22
12,CC(C)(C)c1ccccc1NC(=O)C(=O)N1CC[C@H](C(=O)N[C@@H](CC(=O)O)C(=O)COc2c(F)c(F)cc(F)c2F)C2CCCCC21 (stereo partly drawn) [Example 18],557
13,O=C(O)C[C@H](NC(=O)[C@@H]1CCCN(C(=O)C2CCCC2)C1)C(=O)COc1c(F)c(F)cc(F)c1F [Example 26],12.6
14,O=C(O)C[C@H](NC(=O)C1CCN(C(=O)NCc2ccccc2)CC1)C(=O)COc1c(F)c(F)cc(F)c1F [Example 78],35.9
15,O=C(O)C[C@H](NC(=O)[C@@H]1CCCCN(C(=O)c2noc3ccccc23)C1)C(=O)COc1c(F)c(F)cc(F)c1F [Example 122],5.8
16,Cc1ccc(Cl)c(OC(=O)N2CCC(C(=O)N[C@@H](CC(=O)O)C(=O)COc3c(F)c(F)cc(F)c3F)CC2)c1 [Example 72],17.9
17,O=C(O)C[C@H](NC(=O)C1CCN(C(=O)c2nsc3ccccc23)CC1)C(=O)COc1c(F)c(F)cc(F)c1F [Example 51],27.2
18,CN(C(=O)C(=O)N1CCC(C(=O)N[C@@H](CC(=O)O)C(=O)COc2c(F)c(F)cc(F)c2F)CC1)c1ccccc1C(C)(C)C [Example 64],64.7
19,O=C(O)C[C@H](NC(=O)[C@@H]1COCCN(C(=O)C(=O)Nc2ccccc2Cl)C1)C(=O)COc1c(F)c(F)cc(F)c1F [Example 130],8.1
20,O=C(O)C[C@H](NC(=O)C1CCN(C(=O)c2nc3ccccc3[nH]2)CC1)C(=O)COc1c(F)c(F)cc(F)c1F [Example 42],25.2
21,CC(C)(C)c1ccccc1NC(=O)C(=O)N1CC=CC[C@H](C(=O)N[C@@H](CC(=O)O)C(=O)COc2c(F)c(F)cc(F)c2F)C1 [Example 11],27.2

row,SMILES,EC50 [nM]
1,CC(C)(C)c1ccccc1NC(=O)C(=O)N1CCCO[C@H](C(=O)N[C@@H](CC(=O)O)C(=O)COc2c(F)c(F)cc(F)c2F)C1 [Example 109],192
2,CC(C)[C@@H]1CC[C@@H](C)C[C@H]1OC(=O)N1CCC(C(=O)N[C@@H](CC(=O)O)C(=O)COc2c(F)c(F)cc(F)c2F)CC1 [Example 97],112
3,CC(C)(C)c1ccccc1NC(=O)C(=O)N1CCCCC[C@H](C(=O)N[C@@H](CC(=O)O)C(=O)COc2c(F)c(F)cc(F)c2F)C1 [Example 114],66.3
4,O=C(O)C[C@H](NC(=O)C1CCN(C(=O)OCc2ccc(Cl)cc2Cl)CC1)C(=O)COc1c(F)c(F)cc(F)c1F [Example 91],62
5,O=C(O)C[C@H](NC(=O)C1CCN(C(=O)c2nccc3ccccc23)CC1)C(=O)COc1c(F)c(F)cc(F)c1F [Example 34],43
6,O=C(O)C[C@H](NC(=O)C1CCN(C(=O)c2cccnc2)CC1)C(=O)COc1c(F)c(F)cc(F)c1F [Example 36],10.3
7,O=C(O)C[C@H](NC(=O)C1CCN(C(=O)c2ccno2)CC1)C(=O)COc1c(F)c(F)cc(F)c1F [Example 85],16.3
8,CC(C)(C)c1cc(Cl)ccc1NC(=O)C(=O)N1CCC(C(=O)N[C@@H](CC(=O)O)C(=O)COc2c(F)c(F)cc(F)c2F)CC1 [Example 59],157
9,Cn1c(C(=O)N2CCC(C(=O)N[C@@H](CC(=O)OC(C)(C)C)C(=O)COc3c(F)c(F)cc(F)c3F)CC2)cc2ccccc21 [Example 44],39.7
10,O=C(O)C[C@H](NC(=O)C1CCN(C(=O)OCc2ccccc2)C1)C(=O)COc1c(F)c(F)cc(F)c1F (stereo partly drawn) [Example 22],34.2
11,O=C(O)C[C@H](NC(=O)C1CCN(C(=O)O[C@@H]2C[C@H]3CC[C@@H]2C3)CC1)C(=O)COc1c(F)c(F)cc(F)c1F [Example 100],31.5
12,O=C(O)C[C@H](NC(=O)[C@@H]1CCCN(C(=O)NC2CCCC2)C1)C(=O)COc1c(F)c(F)cc(F)c1F [Example 29],57.4
13,O=C(O)C[C@H](NC(=O)[C@@H]1CCCN(C(=O)OC2CCCC2)C1)C(=O)COc1c(F)c(F)cc(F)c1F [Example 28],22.1
14,O=C(O)C[C@H](NC(=O)C1CC2CCC(C1)N2C(=O)OCc1ccccc1)C(=O)COc1c(F)c(F)cc(F)c1F (stereo partly drawn) [Example 14],275
15,O=C(O)C[C@H](NC(=O)C1CCN(C(=O)Oc2cccc(Cl)c2Cl)CC1)C(=O)COc1c(F)c(F)cc(F)c1F [Example 103],19.8
16,CC(C)(C)c1ccccc1NC(=O)C(=O)N1C[C@H](C(=O)N[C@@H](CC(=O)O)C(=O)COc2c(F)c(F)cc(F)c2F)Cc2ccccc21 [Example 16],417
17,O=C(O)C[C@H](NC(=O)[C@@H]1COCCN(C(=O)c2cc(-c3ccccc3Cl)on2)C1)C(=O)COc1c(F)c(F)cc(F)c1F [Example 126],9.37
18,CC1(C(=O)N2CCC(C(=O)N[C@@H](CC(=O)O)C(=O)COc3c(F)c(F)cc(F)c3F)CC2)CCCC1 [Example 52],21
19,CC(C)(C)c1ccccc1NC(=O)C(=O)N1CC[C@@H](C(=O)N[C@@H](CC(=O)O)C(=O)COc2c(F)c(F)cc(F)c2F)C2CCCCC21 (stereo partly drawn) [Example 19],224
20,O=C(O)C[C@H](NC(=O)[C@@H]1CCCN(C(=O)C(=O)NC2CCCC2)C1)C(=O)COc1c(F)c(F)cc(F)c1F [Example 27],21.1
21,O=C(O)C[C@H](NC(=O)C1CCN(S(=O)(=O)c2ccccc2)CC1)C(=O)COc1c(F)c(F)cc(F)c1F [Example 81],959

row,SMILES,EC50 [nM]
1,Cc1c(F)cc(F)c(F)c1OCC(=O)[C@H](CC(=O)O)NC(=O)C1CCN(C(=O)c2noc3ccccc23)CC1 [Example 41],18.8
2,CC(C)(C)c1ccccc1NC(=O)C(=O)N1CCCCC[C@@H](C(=O)N[C@@H](CC(=O)O)C(=O)COc2c(F)c(F)cc(F)c2F)C1 [Example 113],46.2
3,O=C(O)C[C@H](NC(=O)[C@@H]1CCCN(C(=O)Oc2ccccc2)C1)C(=O)COc1c(F)c(F)cc(F)c1F [Example 31],21.4
4,O=C(O)C[C@H](NC(=O)C1CCN(C(=O)c2ccncc2)CC1)C(=O)COc1c(F)c(F)cc(F)c1F [Example 37],23.9
5,O=C(O)C[C@H](NC(=O)C1CCN(C(=O)C(=O)Nc2cc(Cl)ccc2Cl)CC1)C(=O)COc1c(F)c(F)cc(F)c1F [Example 101],61.3
6,O=C(O)C[C@H](NC(=O)C1CCN(c2ncc3cc(F)ccc3n2)CC1)C(=O)COc1c(F)c(F)cc(F)c1F [Example 82],44
7,CC(C)OC(=O)N1CCC(C(=O)N[C@@H](CC(=O)O)C(=O)COc2c(F)c(F)cc(F)c2F)CC1 [Example 68],23.2
8,O=C(O)C[C@H](NC(=O)C1CCN(c2nc3ccccc3o2)CC1)C(=O)COc1c(F)c(F)cc(F)c1F [Example 83],24
9,O=C(O)C[C@H](NC(=O)C1CCN(c2noc3ccccc23)CC1)C(=O)COc1c(F)c(F)cc(F)c1F [Example 84],35
10,O=C(O)C[C@H](NC(=O)[C@H]1COCCN(C(=O)c2noc3ccccc23)C1)C(=O)COc1c(F)c(F)cc(F)c1F [Example 127],7.14
11,CC(C)(C)c1ccccc1NC(=O)C(=O)N1CCC(F)(C(=O)N[C@@H](CC(=O)O)C(=O)COc2c(F)c(F)cc(F)c2F)CC1 [Example 21],97.9
12,CC(C)(C)c1ccccc1NC(=O)C(=O)N1CCOC[C@H](C(=O)N[C@@H](CC(=O)O)C(=O)COc2c(F)c(F)cc(F)c2F)C1 [Example 124],28.7
13,O=C(O)C[C@H](NC(=O)[C@H]1COCCN(C(=O)C(=O)Nc2ccccc2Cl)C1)C(=O)COc1c(F)c(F)cc(F)c1F [Example 129],5.65
14,O=C(O)C[C@H](NC(=O)C1CN(C(=O)OCc2ccccc2)CCO1)C(=O)COc1c(F)c(F)cc(F)c1F (stereo partly drawn) [Example 24],49.7
15,O=C(O)C[C@H](NC(=O)[C@@H]1COCCN(C(=O)c2noc3ccccc23)C1)C(=O)COc1c(F)c(F)cc(F)c1F [Example 128],9.15
16,CC(C)(C)c1ccccc1NC(=O)C(=O)N1CCCC[C@@](C)(C(=O)N[C@@H](CC(=O)O)C(=O)COc2c(F)c(F)cc(F)c2F)C1 [Example 112],165
17,CC(C)(C)c1ccccc1NC(=O)C(=O)N1CCCC[C@](C)(C(=O)N[C@@H](CC(=O)O)C(=O)COc2c(F)c(F)cc(F)c2F)C1 [Example 111],23
18,CC(C)(C)c1ccccc1C(=O)N1CCC(C(=O)N[C@@H](CC(=O)O)C(=O)COc2c(F)c(F)cc(F)c2F)CC1 [Example 53],67.5
19,CC(C)(C)c1ccccc1NC(=O)C(=O)N1CCOC(C(=O)N[C@@H](CC(=O)O)C(=O)COc2c(F)c(F)cc(F)c2F)C1 (stereo partly drawn) [Example 8],124
20,O=C(O)C[C@H](NC(=O)C1CCN(c2nc3cc(F)ccc3o2)CC1)C(=O)COc1c(F)c(F)cc(F)c1F [Example 104],29.8
21,O=C(O)C[C@H](NC(=O)C1CCN(C(=O)C(=O)NCC2CCCC2)CC1)C(=O)COc1c(F)c(F)cc(F)c1F [Example 63],38
